Experimental data published in patent US12310962B2, “Methods and compositions for treating cancer” (Zetagen Therapeutics, Inc., priority 2019, dated 2025).
“Also recorded” adds a separate entry of the source.

Columns and labels:
[1] = tested on: non-tumor cells, breast epithelium (HUMEC) or vascular endothelium (HUVEC); assay: Cell number of non-tumor control cells versus naloxone dose; assay type: cell-based; settings: 72 h
[2] = tested on: SaOS2 cells; assay: Cell number after 72 hours of naloxone treatment; settings: highest dose
[3] = tested on: SaOS2 osteosarcoma cells; assay: Tumor spheroid assay; assay type: cell-based; settings: 1-5 mM, dose dependent
Experimental: (§1) FIGS. 3A-3C depict a spheroid assay showing that naloxone (an OGFR antagonist) treatment decreases tumor size in vitro. […] FIG. 3B depicts a graph showing quantification of the size of the spheroids formed in the spheroid assay described in FIG. 3A as percent change in spheroid area fraction between time 0 and 120 hours after treatment. FIG. 3C depicts a graph showing quantification of the size of the spheroids formed in the spheroid assay described in FIG. 3A as percent change in cell area fraction in each spheroid at 120 hours after treatment.
(§2) Malignant tumors are characterized by invasion of surrounding normal tissues, and the spheroid assay is a simple micro-plate method (based on uniform, self-assembling 3D tumor spheroids) that is routinely used to assess tumor growth. The effects of anti-tumor efficacy were determined by quantifying the size of the spheroids formed in the and calculate percent change in spheroid area fraction between time 0 and 120 hours after treatment as shown in FIG. 3B. The anti-tumor efficacy was also determined by quantifying the percent change in cell area fraction in each spheroid at 120 hours after treatment as determined by staining the cells with crystal violet as shown in FIG. 3C.

[4] = tested on: BT474 TNBC cells; assay: Tumor spheroid assay; assay type: cell-based; settings: 1-5 mM, dose dependent
Experimental: as §1, §2

[5] = tested on: breast cancer cells (BT474); assay: LDH release cytotoxicity assay; assay type: cell-based; settings: naloxone added for 3 hours, LDH release at 24 hours post-treatment, corrected for cell number, p<0.001
[6] = tested on: triple negative breast cancer (TNBC) cells BT474; assay: Cell number after 72 hours of naloxone treatment; assay type: cell-based; settings: BT474; 72 h exposure; dose dependent
[7] = Cell number after 72 hours of naloxone treatment; assay type: cell-based; settings: cells printed as "90"; highest dose; after 72 hours
[8] = tested on: osteosarcoma cells (SaOS2); assay: LDH release cytotoxicity assay; assay type: cell-based; settings: naloxone added for 3 hours, LDH release at 24 hours post-treatment, corrected for cell number, p<0.001
[9] = tested on: BT20; assay: Cell number after 72 hours of naloxone treatment; settings: highest dose
[10] = tested on: breast cancer cells (BT20); assay: LDH release cytotoxicity assay; assay type: cell-based; settings: naloxone added for 3 hours, LDH release at 24 hours post-treatment, corrected for cell number, p<0.001
[11] = between time 0 and 120 hours after treatment

C=CCN1CC[C@]23c4c5ccc(O)c4O[C@H]2C(=O)CC[C@@]3(O)[C@H]1C5 [Naloxone, naloxone]
dose up to which a non-tumor cell sparing effect is provided [1]: ≤ 2.5 mM
decrease in cell number [2]: 60%
tumor mass cellularity (percent change in cell area fraction, crystal violet) ([3]; 120 hours after treatment): decreased
size of the tumor masses (percent change in spheroid area fraction) [3, 11]: decreased the size of the tumor masses
tumor mass cellularity (percent change in cell area fraction, crystal violet) ([4]; 120 hours after treatment): decreased
size of the tumor masses (percent change in spheroid area fraction) [4, 11]: reduced tumor growth; also recorded: decreased the size of the tumor masses
increase in LDH values relative to normal (non-tumor) cells [5]: 3 fold
number of metabolically active cells compared to control non-tumor cells (HUMEC, HUVEC) [6]: significant reduction
decrease in cell number [7]: 90%
increase in LDH values relative to normal (non-tumor) cells [8]: 6 fold
decrease in cell number [9]: 90%
increase in LDH values relative to normal (non-tumor) cells [10]: 6 fold
